From patent US10682409B2, “Therapeutic treatment” (priority 2012, dated 2020)

Tests used:
Assay type in all cases: in vivo, human
[1] = Examples 3-11: weight and height (velocity, percentile curve, course) of ADHD Patients A-H
Protocol: In an embodiment, a therapeutically effective amount of a therapeutic compound disclosed herein increases the weight or height of an individual is determined by an increase in the individual's weight or height velocity as compared to an individual nor receiving a therapeutic compound for appetite reduction. In an embodiment, weight and/or height velocity can be calculated by taking measurements of height and/or weight of an individual over a period of time and measuring an increase or decrease in an individual's height and/or weight over the period of time. In an embodiment, weight velocity is calculated by taking three time points, time 0 upon initiation of medication to treat ADHD, time 1 addition of an appetite stimulant, time 2 the last data point after initiation of combination treatment. In an embodiment, a formula to calculate weight and height velocity for stimulant alone is (weightT1−weight T0)/days from Time 0 to time 1. In an embodiment, a formula to calculate weight velocity for combination treatment is (weightT2−weight T1)/days from time 1 to time 2. In an embodiment, to evaluate whether weight velocity increased after addition of an appetite stimulant, the weight velocity of time 0 to time 1 is compared to the weight velocity from time 1 to time 2. In an embodiment, height velocity is calculated by taking three time points, time 0 upon initiation of medication to treat ADHD, time 1 addition of an appetite stimulant, time 2 the last data point after initiation of combination treatment. The formula to calculate height velocity for stimulant alone is (weightT1−weight T0)/days from Time 0 to time 1. The formula to calculate height velocity for combination treatment is (weightT2−weight T1)/days from time 1 to time 2. In an embodiment, to evaluate whether height velocity increased after addition of an appetite stimulant, the height velocity of time 0 to time 1 is compared to the height velocity from time 1 to time 2.
Eight patients, identified as patients A-H, that came in suffering from ADHD were treated for ADHD. […] Each patient was then prescribed an appetite simulant to be taken along with the amphetamine or methylphenidate. The patients' weight, height and attentiveness were then followed during the course of treatment.
(§1) The age range of the patients was from 6-15 years of age, with a mean age at the start of treatment for ADHD of 8.4 years of age. The mean age at the start of the combination treatment wherein the patient was administered an amphetamine or methylphenidate and an appetite stimulant was 10.3 years of age. The mean treatment period for the eight patients was 1,108 days with a mean of 2.55 ADHD medication changes during the treatment period. Attentiveness in the eight patients was measured using CGI-S and CGI-I. Patients weight and height velocity were measured to identify a difference in weight and height gain prior to and after addition of an appetite stimulant to the treatment for ADHD. Weight velocity was calculated by taking three time points, time 0 upon initiation of medication to treat ADHD, time 1 addition of an appetite stimulant, time 2 the last data point after initiation of combination treatment. The formula to calculate weight velocity for stimulant alone is (weightT1−weight T0)/days from Time 0 to time 1. The formula to calculate weight velocity for combination treatment is (weightT2−weight T1)/days from time 1 to time 2.

[2] = test system: patients suffering from ADHD; assay: Clinical Global Impression-Severity scale (CGI-S), Patients A-H
Protocol: In an embodiment, attentiveness is measured using the Clinical Global Impression rating scales to measure symptom severity, treatment response and the efficacy of treatments in treatment studies of patients with mental disorders (Guy, W., 1976). In an embodiment, attentiveness is measure using the Clinical Global Impression-Severity scale (“CGI-S”). In an embodiment, CGI-S is a 7-point scale that requires the clinician to rate the severity of the patient's illness at the time of assessment, relative to the clinician's past experience with patients who have the same diagnosis. Considering total clinical experience, a patient is assessed on severity of mental illness at the time of rating 1, normal, not at all ill; 2, borderline mentally ill; 3, mildly ill; 4, moderately ill; 5, markedly ill; 6, severely ill; or 7, extremely ill. In an embodiment, attentiveness is measured using the Clinical Global Impression-Improvement scale (“CGI-I”). […] In an embodiment, attentiveness is measured using the Clinical Global Impression-Efficacy Index (“CGI-E”).
as §1

[3] = test system: patient suffering from ADHD; assay: Example 1: patient suffering from ADHD treated with and without an appetite stimulant (appetite, blood glucose, attentiveness by CGI-S and CGI-I)
Excerpt: A patient suffering from ADHD is prescribed and administered an amphetamine to treat ADHD. The patient takes the amphetamine once a day in the morning or afternoon. […] As a result, the glucose level measured in the blood increases as shown in FIG. 1 and the patient's attentiveness recovers as measured by CGI-S and CGI-I. By taking the appetite stimulant during the time when the patient was awake, the patient increased their caloric intake during times when the patient needed to maintain their attentiveness in order to have reasonable cognition and/or social behaviour.

[4] = Example 2 case study: child with ADHD on methylphenidate, then Periactin (height, weight, percentiles, attentiveness); conditions: for height percentile compared to girls their age / weight percentile compared to girls their age / weight: methylphenidate
Excerpt: Case study: A child was presented by their parents for symptoms of attention deficit hyperactivity disorder. Their size at evaluation was 4′1¾″ and 50 lbs, corresponding to the 81st and 50th percentiles when compared to girls their age. […] At three months following the initiation of treatment for ADHD, the child was 4′2⅞″ and 50½ lbs, corresponding to the 85th and 34rd percentiles when compared to girls their age. At one year, they were 4′4⅜″ and 53 lbs, corresponding to the 84th and 36th percentiles when compared to girls their age. At two years they were 4′5¾″ and 54 lbs, corresponding to the 72nd and 17th percentiles when compared to girls their age. At four years of treatment they were 4′7⅜″ and 59 lbs, corresponding to 70th and 14th percentiles when compared to girls their age. At five years of treatment they were 4′9⅞″ and 64½ lbs, corresponding to 59th and 7th percentiles when compared to girls their age.
The child was then prescribed Periactin at a dosage of 2 mg b.i.d. to attempt to stimulate appetite. The dose was taken in the morning and then in the afternoon. After one year they were 4′11½″ and 72½ lbs, corresponding to 33rd and 5th percentiles when compared to girls their age. The child was then prescribed Periactin at a dose of 4 mg b.i.d. After two months on this dose, they were 5′¼″ and 76 lbs, corresponding to 37th and 8th percentiles when compared to girls their age. At 8 months on this dose, they were 5′½″ and 80 lbs, corresponding to 41st and 8th percentiles when compared to girls their age. At one year on this dose, they were 5′2¾″ and 89½ lbs, corresponding to 51st and 17th percentiles when compared to girls their age. At 18 months on this dose, they were 5′3⅝″ and 99½ lbs, corresponding to 56th and 30th percentiles when compared to girls their age. Additionally, the attentiveness of the child increase following the prescription of Periactin as they increased their food intake during the day.

[5] = Patient E, Concerta 27 mg then Focalin XR 10-15 mg alone, FIG. 12
[6] = various forms of methylphenidate

COC(=O)C(c1ccccc1)C1CCCCN1 (centres unmarked) [Concerta, methylphenidate]
weight course ([1]; Patient A, Concerta 18 mg alone, from about day 371, FIG. 4): began to lose weight again
weight course ([1]; Patient C, Concerta 36 mg alone, FIG. 8): little weight gain followed by weight loss
weight course [1, 5]: did not increase substantively
CGI-S score ([2]; Patient A, Concerta 18 mg alone, constant for almost 400 days, FIG. 5): 4
CGI-S score ([2]; Patient C, Concerta 36 mg alone, FIG. 9): 5
CGI-S score ([2]; Patient D, Concerta 18 mg before combination, FIG. 11): 6

COC(=O)C(c1ccccc1)C1CCCCN1 (centres unmarked) [Daytrana patch, methylphenidate]
CGI-S score ([2]; Patient F, Daytrana patch 15 mg (day 469), 20 mg (day 606), FIG. 15): 5

COC(=O)[C@H](c1ccccc1)[C@H]1CCCCN1 [Focalin XR, dexmethylphenidate]
weight course ([1]; Patient B, Focalin XR 10 mg then 15 mg alone, FIG. 6): slow and then became slightly erratic
weight course [1, 5]: did not increase substantively
CGI-S score ([2]; Patient E, Focalin XR 10 mg (before dose increase), FIG. 13): 6
CGI-S score ([2]; Patient E, Focalin XR 15 mg from day 162, FIG. 13): 5
CGI-S score ([2]; Patient G, Focalin XR 15 mg alone (dropped from 5), FIG. 17): 4

COC(=O)C(c1ccccc1)C1CCCCN1 (centres unmarked) [Ritalin LA, methylphenidate]
weight course ([1]; Patient F, Ritalin LA with Focalin, then Daytrana patch, without Periactin, FIG. 14): did not increase substantively
CGI-S score ([2]; Patient F, Ritalin LA 20 mg and Focalin 5 mg, FIG. 15): 7
CGI-S score ([2]; Patient F, Ritalin LA 30 mg and Focalin 5 mg from day 46, FIG. 15): 6

C[C@@H](Cc1ccccc1)NC(=O)[C@@H](N)CCCCN [Vvyanase, lisdexamfetamine]
weight course ([1]; Patient H, Vvyanase 40 mg alone, FIG. 18): little weight gain
CGI-S score ([2]; Patient H, Vvyanase 40 mg alone (dropped from 6), FIG. 19): 5

CC(N)Cc1ccccc1 (centres unmarked) [amphetamine]
attentiveness as measured by CGI-S and CGI-I ([3]; amphetamine once a day alone): lack of attentiveness
glucose level measured in the blood ([3]; amphetamine once a day alone, FIG. 1): drops
appetite ([3]; amphetamine once a day in the morning or afternoon, alone): loss of appetite

COC(=O)C(c1ccccc1)C1CCCCN1 (centres unmarked) [methylphenidate]
height percentile compared to girls their age ([4]; five years): 59 percentile
weight percentile compared to girls their age ([4]; five years): 7 percentile
height percentile compared to girls their age ([4]; four years): 70 percentile
weight percentile compared to girls their age ([4]; four years): 14 percentile
weight ([4]; four years of treatment): 59 lbs
height percentile compared to girls their age ([4]; one year): 84 percentile
weight ([4]; one year): 53 lbs
weight percentile compared to girls their age ([4]; one year): 36 percentile
height percentile compared to girls their age ([4]; three months): 85 percentile
weight percentile compared to girls their age ([4]; three months): 34 percentile
height percentile compared to girls their age ([4]; two years): 72 percentile
weight ([4]; two years): 54 lbs
weight percentile compared to girls their age ([4]; two years): 17 percentile
response of ADHD to treatment [4, 6]: responded well
side-effect [4, 6]: suppression of appetite and a lack of significant weight gain
